Laboratory results taken from patent US12441727B2, “Tricyclic compounds as inhibitors of KRAS” (Incyte Corporation, priority 2021, dated 2025).
Read-outs that look alike come from different tables or passages of the source.

How the values were obtained:
KRAS G12C = KRAS G12C (Homo sapiens, UniProt P01116, G12C); assay: GDP-GTP exchange assay (KRAS_G12C exchange assay); format: biochemical; conditions: bodipy-loaded KRAS G12C 2.5 nM, SOS1 150 nM, 2 hours pre-incubation with inhibitor; read-out: G12C_exchange
Procedure: The inhibitor potency of the exemplified compounds was determined in a fluorescence based guanine nucleotide exchange assay, which measures the exchange of bodipy-GDP (fluorescently labeled GDP) for GppNHp (Non-hydrolyzable GTP analog) to generate the active state of KRAS in the presence of SOS1 (guanine nucleotide exchange factor). Inhibitors were serially diluted in DMSO and a volume of 0.1 μL was transferred to the wells of a black low volume 384-well plate. 5 μL/well volume of bodipy-loaded KRAS G12C diluted to 5 nM in assay buffer (25 mM Hepes pH 7.5, 50 mM NaCl, 10 mM MgCl2 and 0.01% Brij-35) was added to the plate and pre-incubated with inhibitor for 2 hours at ambient temperature. Appropriate controls (enzyme with no inhibitor or with a G12C inhibitor (AMG-510)) were included on the plate. The exchange was initiated by the addition of a 5 μL/well volume containing 1 mM GppNHp and 300 nM SOS1 in assay buffer. The 10 μL/well reaction concentration of the bodipy-loaded KRAS G12C, GppNHp, and SOS1 were 2.5 nM, 500 uM, and 150 nM, respectively. The reaction plates were incubated at ambient temperature for 2 hours, a time estimated for complete GDP-GTP exchange in the absence of inhibitor. For the KRAS G12D and G12V mutants, similar guanine nucleotide exchange assays were used with 2.5 nM as final concentration for the bodipy loaded KRAS proteins and with 4 hours and 3 hours incubation after adding GppNHp-SOS1 mixture for G12D and G12V respectively. A cyclic peptide described to selectively bind G12D mutant (Sakamoto et al., BBRC 484.3 (2017), 605-611) or internal compounds with confirmed binding were used as positive controls in the assay plates. Fluorescence intensities were measured on a PheraStar plate reader instrument (BMG Labtech) with excitation at 485 nm and emission at 520 nm.
Either GraphPad prism or Genedata Screener SmartFit was used to analyze the data. The IC50 values were derived by fitting the data to a four parameter logistic equation producing a sigmoidal dose-response curve with a variable Hill coefficient.

KRAS_G12C pERK = assay: Cellular pERK HTRF assay (KRAS_G12C pERK assay); format: cell-based, human; conditions: KRAS G12C cells, 4 hours incubation with compound, read-out: G12C_pERK
Procedure: MIA PaCa-2 (KRAS G12C; ATCC® CRL-1420), NCI-H358 (KRAS G12C; ATCC® CRL-5807), A427 (KRAS G12D; ATCC® HTB53), HPAFII (KRAS G12D; ATCC® CRL-1997), YAPC (KRAS G12V; DSMZ ACC382), SW480 (KRAS G12V; ATCC® CRL-228) and NCI-H838 (KRAS WT; ATCC® CRL-5844) cells are purchased from ATCC and maintained in RPMI 1640 media supplemented with 10% FBS (Gibco/Life Technologies). The cells are plated at 5000 cells per well (8 uL) into Greiner 384-well low volume, flat-bottom, and tissue culture treated white plates and incubated overnight at […], 5% CO2. The next morning, test compound stock solutions are diluted in media at 3× the final concentration and 4 uL are added to the cells, with a final concentration of 0.1% of DMSO. The cells are incubated with the test compounds for 4 hours (G12C and G12V) or 2 hrs (G12D) at 37° C., 5% CO2. Four uL of 4× lysis buffer with blocking reagent (Cisbio) are added to each well and plates are rotated gently (300 rpm) for 30 minutes at room temperature. Four uL per well of Cisbio anti Phospho-ERK 1/2 d2 is mixed with anti Phospho-ERK 1/2 Cryptate (1:1), and added to each well, incubated overnight in the dark at room temperature. Plates are read on the Pherastar plate reader at 665 nm and 620 nm wavelengths. Data are analyzed in Genedata Screener using SmartFit for IC50 values.

KRAS G12C, sequence (P01116 1-188 isoform P01116-2 G12C): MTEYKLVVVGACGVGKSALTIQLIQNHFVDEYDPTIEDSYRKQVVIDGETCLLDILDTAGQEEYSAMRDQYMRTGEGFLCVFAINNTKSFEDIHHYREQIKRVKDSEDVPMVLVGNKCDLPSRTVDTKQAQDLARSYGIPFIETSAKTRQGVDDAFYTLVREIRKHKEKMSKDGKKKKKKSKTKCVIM

| SMILES | IC50 (KRAS G12C) [nM] | IC50 (KRAS_G12C pERK) [nM] | IC50 (KRAS_G12C pERK; Homo sapiens, 4 h) [nM] |
| --- | --- | --- | --- |
| C=CC(=O)N1CCC(n2nnc3c(O[C@@H](C)[C@@H]4CCCN4C)nc4c(F)c(-c5cccc6c5c(CC#N)cn6C)c(C)cc4c32)CC1 (single isomer, unassigned) [Example 32a] | 50 to 100 | – | – |
| C=C(F)C(=O)N1CC[C@H](n2nnc3c(O[C@@H](C)[C@@H]4CCCN4C)nc4c(F)c(-c5c(C)ncc6ccccc56)c(C)cc4c32)C[C@H]1CC#N (single isomer, unassigned) [Example 23a] | 50 to 100 | – | – |
| C=C(F)C(=O)N1CC[C@H](n2nnc3c(O[C@@H](C)[C@@H]4CCCN4C)nc4c(F)c(-c5c(F)ccc6ccc(C)nc56)c(C)cc4c32)C[C@H]1CC#N (single isomer, unassigned) [Example 25b] | ≤ 50 | ≤ 50 | – |
| COc1c(Cl)cccc1-c1c(C(F)(F)F)cc2c(nc(N3CC(C)(N(C)C)C3)c3nnn([C@H]4CCN(C(=O)/C=C/CF)[C@H](CC#N)C4)c32)c1F (single isomer, unassigned) [Example 3b] | ≤ 50 | ≤ 50 | – |
| C=CC(=O)N1CCC(n2nnc3c(O[C@@H](C)[C@@H]4CCCN4C)nc4c(F)c(-c5ccc(F)c6cccnc56)c(C(F)(F)F)cc4c32)CC1 (single isomer, unassigned) [Example 5b] | ≤ 50 | 50 to 100 | – |
| C=C(F)C(=O)N1CC[C@H](n2nnc3c(N4CC(N(C)CC)C4)nc4c(F)c(-c5c(C)c(C)cc6[nH]ncc56)c(C)cc4c32)C[C@H]1CC#N (single isomer, unassigned) [Example 15b] | 100 to 1000 | – | – |
| COc1c(C)cccc1-c1c(C(F)(F)F)cc2c(nc(N3CC(C)(N(C)C)C3)c3nnn([C@H]4CCN(C(=O)/C=C/CF)[C@H](CC#N)C4)c32)c1F (single isomer, unassigned) [Example 2b] | ≤ 50 | 50 to 100 | – |
| COC/C=C/C(=O)N1CC[C@H](n2nnc3c(O[C@@H](C)[C@@H]4CCCN4C)nc4c(F)c(-c5c(C)ncc6ccccc56)c(C)cc4c32)C[C@H]1CC#N (single isomer, unassigned) [Example 24a] | ≤ 50 | – | 50 to 100 |
| C=C(F)C(=O)N1CC[C@H](n2nnc3c(N4CC(C)(N(C)C)C4)nc4c(F)c(-c5cccc6cccc(C#N)c56)c(C)cc4c32)C[C@H]1CC#N (single isomer, unassigned) [Example 17b] | 100 to 1000 | – | – |
| COC/C=C/C(=O)N1CC[C@H](n2nnc3c(N4CC(C)(N(C)C)C4)nc4c(Cl)c(-c5ccc(F)c6cccnc56)c(Cl)cc4c32)C[C@H]1CC#N (single isomer, unassigned) [Example 18b] | ≤ 50 | 100 to 1000 | – |
| Cc1cc2c(nc(O[C@@H](C)[C@@H]3CCCN3C)c3nnn(C4CCN(C(=O)/C=C/CF)CC4)c32)c(F)c1-c1cccc2cccc(C#N)c12 (single isomer, unassigned) [Example 16a] | ≤ 50 | – | 100 to 1000 |
| C=CC(=O)N1CC[C@H](n2nnc3c(O[C@@H](C)[C@@H]4CCCN4C)nc4c(F)c(-c5cccc6c5c(CC#N)cn6C)c(C)cc4c32)C[C@H]1C (single isomer, unassigned) [Example 31a] | 100 to 1000 | – | – |
| C=C(F)C(=O)N1CC[C@H](n2nnc3c(N4CC(C)(N(C)CC)C4)nc4c(F)c(-c5c(C)c(F)cc6[nH]ncc56)c(Cl)cc4c32)C[C@H]1CC#N (single isomer, unassigned) [Example 35b] | 100 to 1000 | – | – |
| C=C(F)C(=O)N1CC[C@H](n2nnc3c(N4CC(C)(N(C)CC)C4)nc4c(F)c(-c5c(C)c(C)cc6[nH]ncc56)c(Cl)cc4c32)C[C@H]1CC#N (single isomer, unassigned) [Example 33b] | 100 to 1000 | – | – |
| C=CC(=O)N1CC[C@H](n2nnc3c(O[C@@H](C)[C@@H]4CCCN4C)nc4c(F)c(-c5cccc6c5c(CC#N)nn6C)c(C)cc4c32)C[C@H]1C (single isomer, unassigned) [Example 28a] | 100 to 1000 | – | – |
| C=CC(=O)N1CC[C@H](n2nnc3c(O[C@@H](C)[C@@H]4CCCN4C)nc4c(F)c(-c5cccc6cccc(C#N)c56)c(C)cc4c32)C[C@H]1C (single isomer, unassigned) [Example 14a] | 50 to 100 | – | – |
